In patent US9420813B2, “Sweetener” (AJINOMOTO CO., INC., priority 2007, dated 2016):
*1 amine or outer side, *2 acyl side, *3 side chain or, on linkers, in order; H or OH if unused. Where no end group is shown, it is not given here. [ ]: non-standard residue; d: D form. γGlu = O=C(O)[C@H](CCC(=O)[*:2])N[*:1]

Experiments:
[1] = Quantitative sensory evaluation, body taste and bitterness in drinkable yogurt containing high intensity sweetener (Example 5); set-up: species or system human; conditions: for Bitterness: control 0, <0 improved; for Bitterness / Body taste: n=12; for Body taste: control 0, >0 improved; for improvement of the body taste (conclusion in words): drinkable yogurt with APM, Table 20
Description: The quantitative sensory evaluation test was performed as follows. As for a drinkable yogurt standard solution, the following compounds were used. The following standard solutions have been adjusted so they each have almost the same degree of sweetness.
To a drinkable yogurt containing each of the sweeteners, γ-Glu-Val-Gly or cinacalcet was added and mixed at concentrations 0.0001 to 1 g/dl, and then each degree of the improvement of the body taste and the improvement of the bitterness on the sweet taste was measured.
(§1) When a mixture is more acidic than the standard control solution, the pH of the sample was adjusted with NaOH to achieve a range of pH±0.2 with respect to the pH of the standard solution before use.
(§2) The sensory evaluation for the improvement of the body taste was performed with n=12 on the basis of the following criteria: a control (obtained with adding distilled water only and without adding the sample) was defined as 0, and by using the control as a standard, the following were defined: weak: −2 points; slightly weak: −1 point; slightly strong: 1 point, and strong: 2 points. A higher score than 0 means that the sample has a body taste-improving effect.
as §2, with “On the other hand, the” for “The”, “bitterness” for “body taste”, “lower” for “higher”, “improves the bitterness.” for “has a body taste-improving effect.”

[2] = Quantitative sensory evaluation, improvement of body taste and bitterness of combined high-intensity sweeteners (Examples 2 and 4); set-up: species or system human; conditions: for Bitterness: control 0, <0 improved; for Bitterness / Body taste: n=12; for Body taste: control 0, >0 improved; for improvement of the body taste (conclusion in words): combined sweetener solutions, Tables 9 to 12 and 16 to 19
Description: The quantitative sensory evaluation test was performed as follows. As for a combination standard solution of each sweeteners, the following compounds were used. The following standard solutions have been adjusted so they each have almost the same degree of sweetness.
ii) APM (0.02 g/dl)+Ace-K (0.005 g/dl) [APM:Ace-K=8:2 as a ratio of degrees of sweetness]
iii) Sucralose (0.0058 g/dl)+Ace-K (0.0075 g/dl) [sucralose:Ace-K=7:3 as a ratio of degrees of sweetness]
iv) APM (0.0125 g/dl)+sucralose (0.0042 g/dl) [APM:sucralose=1:1 as a ratio of degrees of sweetness]
v) APM (0.0125 g/dl)+sucralose (0.0021 g/dl)+Ace-K (0.0063 g/dl) [APM:sucralose:Ace-K=2:1:1 as a ratio of degrees of sweetness]
To distilled water containing each of the sweeteners, γ-Glu-Cys-Gly (glutathione), γ-Glu-Val-Gly or γ-Glu-Abu-Gly was added and mixed at concentrations of 0.0001 to 1 g/dl, and then the degree of the improvement of the body taste and the improvement of the bitterness on the sweet taste was measured. The addition effect of the peptides on each of the high-intensity sweeteners was evaluated with reference to sucrose.
When a mixture is more acidic than the standard control solution, the pH of the mixture was adjusted with NaOH to achieve a range of pH±0.2 with respect to the pH of the standard solution before use.
The sensory evaluation for the improvement of the body taste was performed with n=12 on the basis of the following criteria: a control (obtained by adding distilled water only and without adding glutathione and/or the peptide) was defined as 0, and by using the control as a standard, the follow were defined: weak: −2 points; slightly weak: −1 point; slightly strong: 1 point, and strong: 2 points. A higher score than 0 means that the sample has a body taste-improving effect.
(§3) Alternatively, the sensory evaluation for the improvement of the bitterness was performed with n=12 on the basis of the following criteria: a control (obtained by adding distilled water only and without adding glutathione and/or the peptide) was defined as 0, and by using the control as a standard, the following were defined: weak: −2 points; slightly weak: −1 point; slightly strong: 1 point, and strong: 2 points. A lower score than 0 means that the sample improves the bitterness.
The quantitative sensory evaluation test was performed as follows. As for combination standard solution of each sweeteners, the following compound was used. The following standard solutions have been adjusted so they each have almost the same degree of sweetness.
To distilled water containing each sweetener mentioned above, γ-Glu-Val-Gly or cinacalcet was added and mixed at concentrations of 0.0001 to 1 g/dl, and then each degree of the improvement of the body taste and the improvement of the bitterness on the sweet taste was measured. The addition effect of the sample on each of the high intensity sweeteners was evaluated with reference to sucrose.
as §1
as §2, with “improves the” for “has a”, “taste.” for “taste-improving effect.”
as §3, with “(obtained with” for “(obtained by”, “adding” for “adding glutathione and/or”, “the sample)” for “the peptide)”, “points. […]” for “points. A lower score than 0 means that the sample improves the bitterness.”

[3] = drinkable yogurt with APM 0.025 g/dl, sample 0.0001 g/dl
[4] = drinkable yogurt with APM 0.025 g/dl, sample 0.001 g/dl
[5] = APM 0.0125 + sucralose 0.0021 + Ace-K 0.0063 g/dl (2:1:1), sample 0.0001 g/dl
[6] = APM 0.0125 + sucralose 0.0021 + Ace-K 0.0063 g/dl (2:1:1), sample 0.001 g/dl
[7] = APM 0.0125 g/dl + sucralose 0.0042 g/dl (1:1), sample 0.0001 g/dl
[8] = APM 0.0125 g/dl + sucralose 0.0042 g/dl (1:1), sample 0.001 g/dl
[9] = APM 0.02 g/dl + Ace-K 0.005 g/dl (8:2), sample 0.0001 g/dl
[10] = APM 0.02 g/dl + Ace-K 0.005 g/dl (8:2), sample 0.001 g/dl
[11] = APM:Ace-K = 8:2, sample 0.0001 g/dl
[12] = sucralose 0.0058 g/dl + Ace-K 0.0075 g/dl (7:3), sample 0.0001 g/dl
[13] = sucralose 0.0058 g/dl + Ace-K 0.0075 g/dl (7:3), sample 0.001 g/dl

Compound	Bitterness [1, 3] [points]	Body taste [1, 3] [points]	Bitterness [1, 4] [points]	Body taste [1, 4] [points]	improvement of the body taste (conclusion in words) [1]	Bitterness [2, 5] [points]	Body taste [2, 5] [points]	Bitterness [2, 6] [points]	Body taste [2, 6] [points]	Bitterness [2, 7] [points]	Body taste [2, 7] [points]	Bitterness [2, 8] [points]	Body taste [2, 8] [points]	Bitterness [2, 9] [points]	Body taste [2, 9] [points]	Bitterness [2, 10] [points]	Body taste [2, 10] [points]	Taste profile [2, 11]	improvement of the body taste (conclusion in words) [2]	Bitterness [2, 12] [points]	further results
C[C@@H](NCCCc1cccc(C(F)(F)F)c1)c1cccc2ccccc12 [Cinacalcet, (R)—N-(3-(3-(trifluoromethyl)phenyl)propyl)-1-(1-naphthyl)ethylamine, reference compound]	−0.2	0.5	−0.1	1.6	improves the body taste at almost the same concentration	−0.2	0.5	−0.4	1.1	−0.2	0.5	−0.2	1.1	−0.1	0.5	−0.3	1.1	Sweet taste with growth is enhanced in middle	improves the body taste at almost the same concentration	−0.1	Taste profile ([2]; APM:Ace-K = 8:2, sample 0.001 g/dl): Sweet taste with growth is enhanced in middle; Taste profile ([2]; APM:sucralose:Ace-K = 2:1:1, sample 0.0001 g/dl): Harmony and richness are present in middle; Taste profile ([2]; APM:sucralose:Ace-K = 2:1:1, sample 0.001 g/dl): Harmony and richness are present in middle; Body taste [2, 12]: 0.8 points; Bitterness [2, 13]: −0.3 points; Body taste [2, 13]: 1.5 points
[γGlu]-Val-Gly	−0.2	0.5	−0.5	1.4	improves the body taste at almost the same concentration	−0.3	0.6	−0.7	1.3	−0.2	0.6	−0.4	1.3	−0.3	0.6	−0.7	1.3	Sweet taste with growth is enhanced in middle	improves the body taste at almost the same concentration	−0.3	Taste profile [1, 4]: Growth is present in middle taste. Sweet taste; Body taste [2, 12]: 0.7 points; Bitterness [2, 13]: −0.7 points; Body taste [2, 13]: 1.3 points
